Measured values: patent US9050310B2, “Treatment of ocular lesions” (priority 2004, dated 2015)

Columns and labels:
[1] = topical ocular use; cited from earlier work
pterygium = conditions: retrospective study of 164 patients, pterygium surgery with associated treatment; cited from earlier work
VEGF = assay: UVB-mediated induction of VEGF in pterygium epithelial cells, sandwich immunoassay of supernatants; type: cell-based, human; conditions: for VEGF production post-radiation (effect in words) / VEGF production: 20 mJ/cm^2 UVB; for VEGF production post-radiation (effect in words): 10 μM PD98059, 1 μM SB202190, 1 μM SB203580, 1 μM hydrocortisone; for VEGF production: PEC pre-incubated 1 hr with 0.1 μM inhibitor, supernatant after 48 hrs, UVB alone 166.5±11.0 pg/ml
Description: (§1) Pterygium-derived epithelial cells (PEC) were seeded at 1×10^6 cells in 100 mm tissue culture dishes (Corning, N.Y.) or at a density of 1.5×10^5 cells per well in 6-well plates (Nunc, Denmark) and grown in the presence of 10% FBS/EMEM. Once cells reached semi-confluence, the medium was aspirated, cells washed three times with sterile PBS, and left in serum-free medium for 16 hrs as previously described (Di Girolamo N., et al. Prog Retin Eye Res. 2004; 23:195-228), (Di Girolamo N., et al., Invest Opthalmol Vis Sci. 2000; 41:671-679), (Di Girolamo N., et al., Invest Opthalmol Vis Sci. 2002; 43:3430-3437), (Nolan T, et al., Am J Pathol. 2003; 162:567-574), (Di Girolamo., et al., Invest Ophthalmol Vis Sci. 2003; 44:4705-4714). In some experiments, cells were pre-incubated with selective inhibitors of ERK1/2, JNK, and p38 MAPKs (Calbiochem, Calif.). These included 10 μM PD98059, 1 μM SB202190, and 1 μM SB203580, respectively. In addition, 1 μM hydrocortisone (Sigma, St Louis, […].) was added to some cells as a broad-spectrum negative regulator of cytokine production.
(§2) To determine whether surface receptors were involved in transmitting the UVB signal, some cells were pre-incubated for 1 hr with 0.1 μM PD153035 (Calbiochem), an inhibitor of the tyrosine kinase activity of the EGFR or with 0.1 μM AG1295 (Calbiochem) an inhibitor of the tyrosine kinase activity of the PDGFR. While in other experiments, cells were pre-treated with RA (0-0.1 μM; Sigma) or IFN-α (0-15,000 U; PBL Biomedical Laboratories, Piscataway, N.J.). This medium was replaced with PBS and monolayers irradiated with 20 mJ/cm^2 of UVB using FL20SE bulbs (Philips, Sydney, Australia) as previously reported (Di Girolamo N., et al. Prog Retin Eye Res. 2004; 23:195-228), (Di Girolamo N., et al., Invest Opthalmol Vis Sci. 2002; 43:3430-3437), (Nolan T, et al., Am J Pathol. 2003; 162:567-574), (Di Girolamo., et al., Invest Ophthalmol Vis Sci. 2003; 44:4705-4714). UVB light intensity was monitored and calibrated prior to each experiment with the aid of a radiometer IL1400A (International Light, Newburyport, Mass.). After each exposure, PEC were rinsed once with PBS and placed in fresh serum-free medium with the respective compounds, then incubated for a further 48 hrs. Supernatants were collected, cleared of any cell debris by centrifugation, and stored frozen in small aliquots at −70° C. The compounds used in these experiments were non-toxic at all doses tested.
(§3) Human IL-6, IL-8, and VEGF (Quantikine™; R&D Systems, Minneapoli, Minn.) were quantified using sandwich immunoassays. Cytokines in supernatants from control (mock irradiated), or UVB-exposed PEC were captured on antibody-coated 96-well plates, and detection performed precisely as directed by the manufacturer. The optical density of the reaction product was read at the appropriate wavelength using a microplate reader (Spectramax™ Plus, Molecular Devices, Sunnyvale, Calif.).
(§4) Cytokine levels in the culture supernatants were expressed as mean±standard deviation. Difference in cytokine level between control and UV treated cells was assessed by one-way analysis of variance, followed by the Newman-Keuls test for multiple comparisons of treatment groups with the control group. A commercial software package (Prism; GraphPad Software, San Diego, Calif.) was used for analysis.

IL-6 = assay: UVB-mediated induction of IL-6 in pterygium epithelial cells, sandwich immunoassay of supernatants; type: cell-based, human; conditions: for IL-6 production post-radiation (effect in words): 10 μM PD98059, 1 μM SB202190, 1 μM SB203580, 1 μM hydrocortisone
Description: as §1, §2, §3, §4

IL-8 = assay: UVB-mediated induction of IL-8 in pterygium epithelial cells, sandwich immunoassay of supernatants; type: cell-based, human; conditions: for IL-8 production post-radiation (effect in words) / IL-8 levels: 20 mJ/cm^2 UVB; for IL-8 production post-radiation (effect in words): 10 μM PD98059, 1 μM SB202190, 1 μM SB203580, 1 μM hydrocortisone; for IL-8 levels: supernatant after 48 hrs, UVB alone 166.6±22.5 pg/ml
Description: as §1, §2, §3, §4

[2] = PEC, single dose of UVB, several concentrations: RA 0-0.1 μM, IFN-α 0-15,000 U

| Compound | VEGF production post-radiation (effect in words) (VEGF; PEC) | IL-6 production post-radiation (effect in words) (IL-6; PEC, 20 mJ/cm^2 UVB) | IL-8 production post-radiation (effect in words) (IL-8; PEC) | other results |
| --- | --- | --- | --- | --- |
| CO[C@@]12[C@H](COC(N)=O)C3=C(C(=O)C(C)=C(N)C3=O)N1C[C@@H]1N[C@@H]12 [mitomyacin C] | – | – | – | complications [1]: corneoscleral melting, cataract and secondary glaucoma; pterygium regrowth (pterygium): 8.74% |
| COc1cccc(-c2cc(=O)c3ccccc3o2)c1N [PD98059] | only partially, but significantly reduced | significantly abrogated | significantly abrogated | – |
| C[C@]12CCC(=O)C=C1CC[C@@H]1[C@@H]2[C@@H](O)C[C@@]2(C)[C@H]1CC[C@]2(O)C(=O)CO [Hydrocortisone, hydrocortisone] | near control levels | near control levels | near control levels | – |
| C[S+]([O-])c1ccc(-c2nc(-c3ccncc3)c(-c3ccc(F)cc3)[nH]2)cc1 (stereo not shown) [SB203580] | only partially, but significantly reduced | significantly abrogated | significantly abrogated | – |
| COc1cc2ncnc(Nc3cccc(Br)c3)c2cc1OC [PD153035] | – | – | – | VEGF production (VEGF): 109.1 ± 1.5 pg/mL; IL-8 levels (IL-8; PEC pre-incubated 1 hr with 0.1 μM inhibitor): 74.4 ± 23.6 pg/mL |
| Cc1cc2ncc(-c3ccccc3)nc2cc1C [AG1295] | – | – | – | VEGF production (VEGF): 132.7 ± 8.0 pg/mL; IL-6 levels (IL-6; PEC pre-incubated 1 hr with 0.1 μM inhibitor, 20 mJ/cm^2 UVB, supernatant after 48 hrs, UVB alone 356.2±32.1): 217 ± 42 pg/mL; IL-8 levels (IL-8; PEC pre-incubated 1 hr with 0.1 μM PD153035 (EGFR inhibitor) or 0.1 μM AG1295 (PDGFR inhibitor)): 174 ± 60.3 pg/mL |
| IFN-α | – | – | – | UVB-mediated induction of VEGF (effect in words) (VEGF; [2]): no significant inhibitory effect; IL-6 protein production (effect in words) (IL-6; [2]): dose-dependently inhibited; IL-8 protein production (effect in words) (IL-8; [2]): dose-dependently inhibited |
| Oc1ccc(-c2nc(-c3ccncc3)c(-c3ccc(F)cc3)[nH]2)cc1 [SB202190] | only partially, but significantly reduced | significantly abrogated | significantly abrogated | – |
